Assay results as given in patent US20240116985A1, “STAPLED PEPTIDES AND METHODS THEREOF” (priority 2020, published 2024).
≈ marks a conversion by molar mass, not a printed value. Like-named read-outs stand apart in the source and are kept apart here.

Tests used:
[1] = molecular target: T1, full-length beta-Catenin (Uniprot ID P35222) (Homo sapiens, UniProt P35222); test: Fluorescence polarization IC50 (beta-catenin / 5FAM-TCF4 10-53 competition); type: binding
T1 construct: 10 nM full-length beta-Catenin (Uniprot ID P35222)
T1 sequence (P35222 1-781): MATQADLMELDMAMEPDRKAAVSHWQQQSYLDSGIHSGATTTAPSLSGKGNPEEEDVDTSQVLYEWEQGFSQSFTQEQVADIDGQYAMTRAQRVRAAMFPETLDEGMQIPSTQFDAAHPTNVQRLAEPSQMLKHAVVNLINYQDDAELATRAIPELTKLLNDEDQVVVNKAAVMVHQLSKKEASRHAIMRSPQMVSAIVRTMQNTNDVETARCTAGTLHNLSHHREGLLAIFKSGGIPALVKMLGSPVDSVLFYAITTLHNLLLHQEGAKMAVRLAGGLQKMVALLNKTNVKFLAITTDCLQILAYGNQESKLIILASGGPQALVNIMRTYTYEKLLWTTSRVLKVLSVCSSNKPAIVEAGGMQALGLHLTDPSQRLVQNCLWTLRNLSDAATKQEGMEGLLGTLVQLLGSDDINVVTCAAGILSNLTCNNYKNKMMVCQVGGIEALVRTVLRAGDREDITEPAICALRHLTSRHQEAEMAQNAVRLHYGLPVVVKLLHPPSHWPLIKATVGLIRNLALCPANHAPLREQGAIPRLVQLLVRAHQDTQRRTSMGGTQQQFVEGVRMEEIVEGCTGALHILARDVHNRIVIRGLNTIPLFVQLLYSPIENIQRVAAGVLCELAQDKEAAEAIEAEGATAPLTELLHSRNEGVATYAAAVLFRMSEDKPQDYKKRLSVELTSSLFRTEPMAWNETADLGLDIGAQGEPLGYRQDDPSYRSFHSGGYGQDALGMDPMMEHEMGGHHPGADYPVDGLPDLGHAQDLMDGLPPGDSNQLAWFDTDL

Solubility in PBS = type: physicochemical
Procedure, shortened: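 PBS sample ultracentrifuged; supernatant run on HPLC vs. 50 μM peptide in DMSO standard. Solubility = (PBS peak area / DMSO peak area) × 50 uM.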

CHI Log D procedure = type: physicochemical; details: for CHI Log D: pH 7.4
[2] = molecular target: T2, beta-catenin/TCF4 engagement (Homo sapiens, UniProt P35222); test: Nano-BRET target engagement assay (B-cat-Halo & TCF4-Luc in HEK293 cells); type: cell-based
T2 construct: expressed in transfected cells; host or cells: HEK293
T2 sequence (P35222 1-781): T1 sequence (P35222 1-781)

[3] = fluorescence polarization, read-out: beta-Catenin FP IC50
[4] = absolute IC50; read-out: NanoBRET Abs IC50

SMILES | IC50 ([1]; read-out: beta-Catenin FP IC50) | Solubility (Solubility in PBS; Solubility (uM)) | chromatographic logD (CHI Log D procedure; pH 7.4, CHI Log D) | IC50 ([2]; read-out: NanoBRET Abs IC50) | IC50 [1, 3] | IC50 ([1]; read-out: FP EC50) | Solubility (Solubility in PBS) | CHI Log D (CHI Log D procedure) | IC50 [2, 4] | further results
CC[C@@H]1NC(=O)[C@H](CC(=O)O)NC(=O)[C@]2(CC=CCCCC3(CCCC=CCCCCCC[C@@](C)(C(=O)N[C@@H](Cc4ccccc4)C(=O)N[C@@H](Cc4csc5ccccc45)C(=O)N[C@@H](Cc4c[nH]cn4)C(N)=O)NC(=O)[C@H](CCC(N)=O)NC(=O)[C@H](Cc4ccccc4)NC(=O)[C@H](C)NC(=O)[C@H](C)NC(=O)[C@H](CCC(=O)O)NC(=O)[C@H](CC(=O)O)NC3=O)NC1=O)CCCN2C(C)=O (stereo partly drawn) [I-571, Ac-PL3-Asp-Abu-B5-Asp-Glu-Ala-Ala-Phe-Gln-S8-Phe-BztA-His-NH2] | – | – | – | – | 32 nM | 32 nM | 24 µM (≈ 44.7 µg/mL) | 2.245 | 15600 nM | –
CC(=O)N1CCC[C@]12CC=CCCCC1(CCCC=CCCCOC(=O)N3CC[C@@](C(=O)N[C@@H](Cc4ccsc4)C(=O)N[C@@H](Cc4csc5ccccc45)C(=O)N[C@@H](CCC(N)=O)C(=O)N[C@@H](CCCCNC(=O)c4ccc(CN5CCN(C)CC5)cc4)C(N)=O)(C3)NC(=O)[C@H](CC(N)=O)NC(=O)[C@H](Cc3ccccc3)NC(=O)[C@H](C)NC(=O)[C@H](C)NC(=O)[C@H](CC(=O)O)NC(=O)[C@H](CC(=O)O)NC1=O)NC(=O)[C@H](CC(C)(C)C)NC(=O)[C@H](CC(=O)O)NC2=O (stereo partly drawn) [I-908, Ac-PL3-Asp-Npg-B5-Asp-Asp-Ala-Ala-Phe-Asn-PyrS2-3Thi-BztA-Gln-[4MePipBz]Lys-NH2] | 10 nM | 44 µM (≈ 99.6 µg/mL) | 1.82 | 26000 nM | – | – | – | – | – | –
CC(=O)N1CCC[C@]12CC=CCCCC1(CCCC=CCCCCOC(=O)N3CC[C@@](C(=O)N[C@@H](Cc4ccsc4)C(=O)N[C@@H](Cc4csc5ccccc45)C(=O)N[C@@H](CC(N)=O)C(=O)N[C@@H](C)C(N)=O)(C3)NC(=O)[C@H](CC(N)=O)NC(=O)[C@H](Cc3ccccc3)NC(=O)[C@H](C)NC(=O)[C@H](C)NC(=O)[C@H](CC(=O)O)NC(=O)[C@H](CC(=O)O)NC1=O)NC(=O)[C@H](CC(C)(C)C)NC(=O)[C@H](CC(=O)O)NC2=O (stereo partly drawn) [I-829, Ac-PL3-Asp-Npg-B5-Asp-Asp-Ala-Ala-Phe-Asn-PyrS3-3Thi-BztA-Asn-Ala-NH2] | 15 nM | 34 µM (≈ 67.6 µg/mL) | 2.08 | 30200 nM | – | – | – | – | – | –
CC(=O)N1CCC[C@]12CC=CCCCC1(CCCC=CCCCOC(=O)N3CC[C@@](C(=O)N[C@@H](Cc4ccsc4)C(=O)N[C@@H](Cc4csc5ccccc45)C(=O)N[C@@H](CCC(N)=O)C(N)=O)(C3)NC(=O)[C@H](CC(N)=O)NC(=O)[C@H](Cc3ccccc3)NC(=O)[C@H](C)NC(=O)[C@H](C)NC(=O)[C@H](CC(=O)O)NC(=O)[C@H](CC(=O)O)NC1=O)NC(=O)[C@H](CC(C)C)NC(=O)[C@H](CC(=O)O)NC2=O (stereo partly drawn) [I-688, Ac-PL3-Asp-Leu-B5-Asp-Asp-Ala-Ala-Phe-Asn-PyrS2-3Thi-BztA-Gln-NH2] | – | – | – | – | 6 nM | 6 nM | 46 µM (≈ 87.6 µg/mL) | 1.924 | 30100 nM | –
CC(=O)N1CCC[C@]12CC=CCCCC1(CCCC=CCCCOC(=O)N3CC[C@@](C(=O)N[C@@H](Cc4ccsc4)C(=O)N[C@@H](Cc4csc5ccccc45)C(N)=O)(C3)NC(=O)[C@H](CC(N)=O)NC(=O)[C@H](Cc3ccccc3)NC(=O)[C@H](C)NC(=O)[C@H](C)NC(=O)[C@H](Cc3c[nH]cn3)NC(=O)[C@H](CC(=O)O)NC1=O)NC(=O)[C@H](CC(C)(C)C)NC(=O)[C@H](CC(=O)O)NC2=O (stereo partly drawn) [I-863, Ac-PL3-Asp-Npg-B5-Asp-His-Ala-Ala-Phe-Asn-PyrS2-3Thi-BztA-NH2] | 22 nM | – | – | > 20000 nM | – | – | 10 µM (≈ 18.1 µg/mL) | – | – | logD (CHI Log D procedure; pH 7.4, CHI Log D): 2.28
CC(=O)N1CCC[C@]12CC=CCCCC1(CCCC=CCCCOC(=O)N3CC[C@@](C(=O)N[C@@H](Cc4ccccc4)C(=O)N[C@@H](Cc4csc5ccccc45)C(=O)N[C@@H](Cc4c[nH]cn4)C(N)=O)(C3)NC(=O)[C@H](CC(N)=O)NC(=O)[C@H](Cc3ccccc3)NC(=O)[C@H](C)NC(=O)[C@H](C)NC(=O)[C@H](CCC(=O)O)NC(=O)[C@H](CC(=O)O)NC1=O)NC(=O)[C@H](CC(C)(C)C)NC(=O)[C@H](CC(=O)O)NC2=O (stereo partly drawn) [I-692, Ac-PL3-Asp-Npg-B5-Asp-Glu-Ala-Ala-Phe-Asn-PyrS2-Phe-BztA-His-NH2] | – | – | – | – | 9 nM | 9 nM | 38 µM (≈ 73.5 µg/mL) | 2.12 | 25600 nM | –
CC(=O)N1CCC[C@]12CC=CCCCC1(CCCC=CCCCCCC[C@@](C)(C(=O)N[C@@H](Cc3ccccc3)C(=O)N[C@@H](Cc3csc4ccccc34)C(=O)N[C@@H](CCC(N)=O)C(N)=O)NC(=O)[C@H](CC(N)=O)NC(=O)[C@H](Cc3ccccc3)NC(=O)[C@H](C)NC(=O)[C@H](C)NC(=O)[C@H](CCC(=O)O)NC(=O)[C@H](CC(=O)O)NC1=O)NC(=O)[C@H](CC(C)C)NC(=O)[C@H](CC(=O)O)NC2=O (stereo partly drawn) [I-577, Ac-PL3-Asp-Leu-B5-Asp-Glu-Ala-Ala-Phe-Asn-S8-Phe-BztA-Gln-NH2] | – | – | – | – | 13 nM | 13 nM | 47 µM (≈ 87.9 µg/mL) | 2.376 | 10400 nM | –
C[C@@H]1NC(=O)[C@H](C)NC(=O)[C@H](CC(=O)O)NC(=O)[C@H](CC(=O)O)NC(=O)C2(CCCC=CCCCCCC[C@@](C)(C(=O)N[C@@H](Cc3ccsc3)C(=O)N[C@@H](Cc3csc4ccccc34)C(=O)N[C@@H](CCC(N)=O)C(N)=O)NC(=O)[C@H](CC(N)=O)NC(=O)[C@H](Cc3ccccc3)NC1=O)CCCC=CC[C@]1(CCCN1C(=O)CN=[N+]=[N-])C(=O)N[C@@H](CC(=O)O)C(=O)N[C@@H](CC(C)(C)C)C(=O)N2 (stereo partly drawn) [I-1053, AzAc-PL3-Asp-Npg-B5-Asp-Asp-Ala-Ala-Phe-Asn-S8-3Thi-BztA-Gln-NH2] | – | – | – | – | – | – | 48 µM (≈ 92 µg/mL) | 2.381 | – | IC50 ([1]; read-out: FP EC50, fluorescence polarization, beta-catenin): 11 nM; IC50 ([2]; read-out: NanoBRET Abs IC50; absolute IC50): > 20000 nM

The next lines start with results.

IC50 ([1]; read-out: beta-Catenin FP IC50) | Solubility (Solubility in PBS; Solubility (uM)) | chromatographic logD (CHI Log D procedure; pH 7.4, CHI Log D) | IC50 ([2]; read-out: NanoBRET Abs IC50) | IC50 [1, 3] | IC50 ([1]; read-out: FP EC50) | Solubility (Solubility in PBS) | CHI Log D (CHI Log D procedure) | IC50 [2, 4] | SMILES | further results
16 nM | 43 µM (≈ 88 µg/mL) | 1.65 | > 20000 nM | – | – | – | – | – | CCCC(=O)NCCCC[C@@H]1NC(=O)[C@H](C)NC(=O)[C@H](CC(=O)O)NC(=O)[C@H](CC(=O)O)NC(=O)C2(CCCC=CCCCOC(=O)N3CC[C@@](C(=O)N[C@@H](Cc4ccsc4)C(=O)N[C@@H](Cc4csc5ccccc45)C(=O)N[C@@H](CCC(N)=O)C(N)=O)(C3)NC(=O)[C@H](CC(N)=O)NC(=O)[C@H](Cc3ccccc3)NC1=O)CCCC=CC[C@]1(CCCN1C(C)=O)C(=O)N[C@@H](CC(=O)O)C(=O)N[C@@H](CC(C)(C)C)C(=O)N2 (stereo partly drawn) [I-897, Ac-PL3-Asp-Npg-B5-Asp-Asp-Ala-[Bua]Lys-Phe-Asn-PyrS2-3Thi-BztA-Gln-NH2] | –
14 nM | 31 µM (≈ 70.7 µg/mL) | 1.45 | > 20000 nM | – | – | – | – | – | COCCOCCOCCOCCOCCOCCC(=O)NCCCC[C@@H]1NC(=O)[C@H](C)NC(=O)[C@H](CC(=O)O)NC(=O)[C@H](CC(=O)O)NC(=O)C2(CCCC=CCCCOC(=O)N3CC[C@@](C(=O)N[C@@H](Cc4ccsc4)C(=O)N[C@@H](Cc4csc5ccccc45)C(=O)N[C@@H](CCC(N)=O)C(N)=O)(C3)NC(=O)[C@H](CC(N)=O)NC(=O)[C@H](Cc3ccccc3)NC1=O)CCCC=CC[C@]1(CCCN1C(C)=O)C(=O)N[C@@H](CC(=O)O)C(=O)N[C@@H](CC(C)(C)C)C(=O)N2 (stereo partly drawn) [I-895, Ac-PL3-Asp-Npg-B5-Asp-Asp-Ala-[mPEG6]Lys-Phe-Asn-PyrS2-3Thi-BztA-Gln-NH2] | –
6 nM | 48 µM (≈ 91.4 µg/mL) | 2.12 | 15000 nM | – | – | – | – | – | CC(=O)N1CCC[C@]12CC=CCCCC1(CCCC=CCCCOC(=O)N3CC[C@@](C(=O)N[C@@H](Cc4ccsc4)C(=O)N[C@@H](Cc4csc5ccccc45)C(=O)N[C@H](CC(N)=O)C(N)=O)(C3)NC(=O)[C@H](CC(N)=O)NC(=O)[C@H](Cc3ccccc3)NC(=O)[C@H](C)NC(=O)[C@H](C)NC(=O)[C@H](CC(=O)O)NC(=O)[C@H](CC(=O)O)NC1=O)NC(=O)[C@H](CC(C)(C)C)NC(=O)[C@H](CC(=O)O)NC2=O (stereo partly drawn) [I-818, Ac-PL3-Asp-Npg-B5-Asp-Asp-Ala-Ala-Phe-Asn-PyrS2-3Thi-BztA-dAsn-NH2] | inhibition at 10 µM ([2]; HEK293, 10 uM; read-out: NanoBRET % inh @ 10 uM): 31.4%
